Entries after “also recorded” stand apart in the source; their conditions may differ.
Experiments:
[1] = Electrophilic reactivity: reaction between BANA and β-mercaptoethanol followed by UV-Visible spectra; assay type: physicochemical; conditions: BANA 30 μM, β-ME 300 μM, phosphate buffer 20 mM pH=7.4, scans each min up to 15 min
Protocol: Most electrophilic nitroalkene compounds exert their pharmacological activity via a Michael addition reaction with nucleophiles. To study the electrophilic properties of BANA, the reaction between -mercaptoethanol (BME) and BANA was studied spectrophotometrically.
The electrophilic reactivity of BANA compound was determined by analyzing the UV-Visible spectra of the reaction between BANA and β-Mercaptoethanol (β-ME). BANA (30 μM) was incubated with β-ME (300 μM) in Phosphate buffer (20 mM) pH=7.4, and scans were taken each min up to 15 min.

NF-κB [2] = assay: LPS-induced NF-κB-dependent gene expression in THP-1 cells (qPCR); assay type: cell-based, Human; conditions: 30 μM for 2 hs, then LPS 100 ng/mL
Protocol: The effect of BANA or BA over NF-κB-dependent gene expression was studied by qPCR using THP-1 cells. THP-1 cells were differentiated into macrophages and treated with BANA (30 μM) or BA (30 μM) for 2 hs, followed by stimulation with LPS (100 ng/mL, for 3-4 h).
TNFα, CCL2, IL6 and IL-1β expression was analyzed by RT-PCR. Real-time PCR analysis was conducted as follows: Total mRNA was extracted from THP-1 cells to quantify TNFα, IL-6 and MCP-1-fold change gene expression over control (β-actin) by qPCR assay. Purified RNA was transcripted to cDNA using Superscript II Reverse Transcriptase with Oligo (dT). The cDNA for real-time PCR was obtained with a Piko 24 Thermal Cycler (Thermo Scientific). mRNA expression analysis was calculated using the ddCt method with β-Actin as the house keeping gene. SYBR Green was used as DNA binding dye and the qRT-PCR was done in an Eco Illumina thermocycler. Human primers sequences were used for THP-1 cells: […]

NF-κB-p65 = assay: Nuclear NF-κB-p65 in perineuronal microglia of the spinal cord; assay type: in vivo, rat; conditions: post-paralysis treatment for 15 days, 100 mg/kg/day
Protocol: FIG. 9A: Scheme of the experimental design. SOD1^G93A female rats were treated with 100 mg/kg/day of BANA or vehicle immediately after the first signs of paralysis onset of one hindlimb and continue for 15 days. Immunohistological analysis of the lumbar spinal cord of non-transgenic and vehicle- and BANA-treated SOD1^G93A symptomatic rats were performed.
FIG. 9C: Confocal images show NF-κB-p65 (green) and DAPI (red) expression in the ventral horn of the spinal cord of non-transgenic and symptomatic SOD1^G93A rats, treated with vehicle or BANA, in the surroundings of motor neurons (white dotted lines). Nuclei stained in yellow denote nuclear NF-κB-p65 and DAPI colocalization (white arrows). […] Data are expressed as mean±SEM; data were analyzed by the Kruskal-Wallis test followed by Dunn's multiple comparisons test, **p=0.0018, ***p=0.0003. n=4 animals per condition. Scale bar=20 μm.
At least 4 rats were analyzed for each immunohistochemistry experiment. Three different conditions were studied as follows: 1) non-transgenic (NonTg) rats of 160-180 days; 2) transgenic SOD1^G93A rats of 195-210 days treated with vehicle (paralysis, 15 d-vehicle) and 3) transgenic SOD1^G93A rats of 195-210 days treated with 50 or 100 mg/kg/day of BANA during 15 days. After treatment animals were deeply anesthetized and transcardial perfusion was performed with paraformaldehyde 4% (v/v) in PBS pH=7.4. […]

NF-κB [3] = assay: RT-qPCR of NF-κB-associated cytokine mRNA in LPS-stimulated SOD1^G93A primary microglia; assay type: cell-based, rat; conditions: adult microglia isolated from symptomatic SOD1^G93A rats
Protocol: FIG. 8F: Analysis by RT-qPCR of mRNA levels of NF-κB-associated proinflammatory cytokines CCL2, IL-6, IL-1β, and TNFα following LPS-stimulation in SOD1^G93A primary microglia.
BANA inhibits LPS-induced NF-κB-p65 nuclear translocation in SOD1^G93A microglia. Nuclear NF-κB-p65 colocalizing with DAPI nuclear staining is denoted in yellow. […] All quantitative data are expressed as mean±SEM; data were analyzed by Ordinary one-way ANOVA followed by Tukey's multiple comparisons test, ****p<0,0001, 3 replicates of 4 independent experiments. Scale bar=20 μm. […] BANA prevents NF-κB-mediated gene transcription induced by LPS. Data are expressed as mean±SEM; data were analyzed by Ordinary one-way ANOVA followed by Tukey's multiple comparisons test, *p=0.0395 (CCL2) *p=0.0409 (IL-6) **p=0.0049 (IL-10) *p=0.0292 **p=0.0063 (TNFα). 2 replicates of 3 independent experiments.

NF-kB = NF-kB activation after sciatic nerve section in NF-kB-RE-Luc mice (in vivo luminescence); parameters: species or system mouse; conditions: oral 100 mg/kg/day day 0 to day 4, vs vehicle
Protocol: FIG. 17A: Scheme of the experimental design in which NF-kB-RE-Luc tg mice were treated with 100 mg/kg/day of BANA or vehicle starting immediately before sciatic nerve section (day 0) until day 4.
For NF-kB in vivo imaging studies, the NF-kB-RE-Luc random transgenic mouse model (Taconic, BALB/c-Tg(Rela-luc)31Xen) aged 6-8 weeks was used. These animals carry a transgene containing 6 NF-kB-responsive elements (RE) from the CMVα (immediate early) promoter placed upstream of a basal SV40 promoter, and a modified firefly luciferase cDNA (Promega pGL3). Animals were randomized divided into two groups and orally administrated with 100 mg/kg of BANA or Vehicle (phosphate buffer) starting immediately before sciatic nerve section in the right hindlimb and continuing for 4 days. At day 1, 2 and 4 post-surgery, differences in luciferase activity were compared between groups. To accomplish that, 150 mg/kg of the substrate D-luciferin (#K9918PE, XenoLight) dissolved in PBS, pH 7.4, was injected intraperitoneally to each mouse. […] Changes in NF-kB activity were quantified after comparing the differences of luminescence in the right hindlimb between groups, using ImageJ software.

O=C(O)c1ccc(/C=C/[N+](=O)[O-])cc1 [BANA, (E)-4-(2-nitrovinyl) benzoic acid]
reaction with β-mercaptoethanol (UV-Visible absorbance) [1]: react with 3-ME, resulting in a decreased in absorbance | levels of mRNA coding for TNFα, MCP-1 and IL-6 (NF-κB [2]): potently prevented; also recorded: abrogated | perineuronal microglia bearing NF-κB-p65-positive nuclei (NF-κB-p65): significant reduction | LPS-induced NF-κB-dependent transcription of CCL2/MCP1, IL-6, IL-1β and TNFα (RT-qPCR) (NF-κB [3]): prevented | NF-kB luminescence in right hindlimb after sciatic nerve section (NF-kB): significantly prevented

Source: patent publication US20260060947A1 (INSTITUT PASTEUR DE MONTEVIDEO, priority 2019, published 2026)
